Where two headings read alike, the source gives them in different places.

We go through seven substances from EP0207202A1, “Anti-tumor platinum complexes” (Kidani, Yoshinori, priority 1985, dated 1987).

The test system of the assay is Leukemia L-1210. The settings on record: for number of mice cured after 30 days of the administration of the cells of Leukemia L-1210: parenthesized figure; for number of mice cured after 30 days of the administration of the cells of Leukemia L-1210 / T/C x 100: 6 mice per group; for T/C x 100: ratio of mean survival time test/control x 100. From the text: Cells of Leukemia L-1210 were intraperitoneally administered to each of groups of mice(6 animals per group) at a rate of 10^5 cells per mouse, and while breeding the mice of control group, each of the compounds of the present invention was intraperitoneally administered to each mouse of the test groups after one, five and nine days of the administration of the cells, the mice of the test groups being bred similarly to those of control group. After observing the mortality of all the mice, the mean survival time period after the administration of the cells was obtained in each group including control group.

The mark [1] stands for this setting: 25 mg/kg i.p. on days 1, 5 and 9.
The mark [2] stands for this setting: 25 mg/kg intraperitoneally on days 1, 5 and 9 after 10^5 L-1210 cells i.p.
[3] abbreviates: 50 mg/kg i.p. on days 1, 5 and 9.
Setting [4] is: 50 mg/kg intraperitoneally on days 1, 5 and 9 after 10^5 L-1210 cells i.p.
[5] abbreviates: 100 mg/kg intraperitoneally on days 1, 5 and 9 after 10^5 L-1210 cells i.p.
The mark [6] stands for this setting: 100 mg/kg i.p. on days 1, 5 and 9.
Where [7] appears, read: 6.25 mg/kg intraperitoneally on days 1, 5 and 9 after 10^5 L-1210 cells i.p.
Where [8] appears, read: 12.5 mg/kg intraperitoneally on days 1, 5 and 9 after 10^5 L-1210 cells i.p.

On to “Pt(NO3)(tetra-O-acetyl-α-D-glucuronato)(cis-dl-AMCHA) [Compound No. 6]”, for which the “number of mice cured after 30 days of the administration of the cells of Leukemia L-1210” value (“number of mice cured” below) under setting [1] amounted to 1 and the “number of mice cured” value under setting [3] was 3. Moreover, the “T/C x 100” value under setting [2] came out at 281, the “T/C x 100” value under setting [4] stood at 402 and the “T/C x 100” value under setting [5] is listed as 120.
For the substance “Pt(NO3)(tetra-O-acetyl-β-D-glucuronato)(cis-dl-AMCHA)·3/2H2O [Compound No. 10]”, under setting [1], the “number of mice cured” value is listed as 1. Further, the “T/C x 100” value is, setting by setting: under setting [2], 204; under setting [4], 242; under setting [5], 157. Besides, for the setting “Table 2, dose not stated”, the “rate of life prolongation (T/C x 100)” value is 400%.
On to “Pt(NO3)(tetra-O-acetyl-β-D-glucuronato)(trans-dl-AMCHA)·2H2O [Compound No. 9]”, for which the “number of mice cured” value reads like this: under setting [3], 1; under setting [6], 2. For the same substance, the “T/C x 100” value amounted to 253 under setting [4] and 206 under setting [5].
For the substance “Pt(penta-O-acetyl-D-gluconato)2(trans-dl-AMCHA)·H2O [Compound No. 15]”, the “T/C x 100” value by setting is: under setting [4], 267; under setting [5], 103.
For “Pt(tetra-O-acetyl-α-D-glucuronato)2(cis-dl-AMCHA) [Compound No. 4]”, the “T/C x 100” value under setting [2] is reported as 145, the “T/C x 100” value under setting [4] amounted to 198 and the “T/C x 100” value under setting [5] amounted to 277. The “number of mice cured” value amounted to 1 under setting [3] and 2 under setting [6].
In the case of “PtCl(D-glucuronato)(cis-dl-AMCHA)·H2O [Compound No. 2]”, the “number of mice cured” value (6.25 mg/kg i.p. on days 1, 5 and 9) is recorded as 2. Also, the “T/C x 100” value was determined as 271 under setting [7], 189 under setting [8] and 156 under setting [2].
For the substance “PtCl(D-glucuronato)(trans-dl-AMCHA)·2H2O [Compound No. 1]”, the “T/C x 100” value worked out at 144 under setting [7], 118 under setting [8] and 293 under setting [2]. Under setting [1], the “number of mice cured” value was found to be 2.
